{
  "source": "patent US5663201A",
  "about": "“Desferrioxamine-B salts” (CIBA-GEIGY Corporation, priority 1992, dated 1997)",
  "key": {"[1]": {"format": "physicochemical", "settings": "n-octanol/water, 5000 µM", "description": "(§1) The partition coefficients of the salts prepared in Examples 1 to 5 between n-octanol and water are determined by the `shake-flask` method of Leo et at, Chem. Rev., 71(6), 525 (1971).\nThe n-octanol and aqueous phases are mutually saturated prior to conducting the experiment. The desferrioxamine-B sulphonic acid addition salt is dissolved in the aqueous phase at a concentration of 0.005 mol/l and the partition experiment is performed by shaking the vessel containing the two phases until an equilibrium has been achieved. […] After equilibrium has been achieved, the sample is centrifuged to enable phase separation. Both organic and aqueous phases are analysed for desferrioxamine-B content via extraction of an appropriate aliquot, quenching with an aqueous (for assay of the aqueous phase) or methanolic (for assay of the n-octanol phase) solution of FeCl3, and measurement of the absorption of the characteristic ferrioxamine-B chelate at ca. 450 nm. Respective calibration plots (absorbance vs. concentration of desferrioxamine-B sulphonic acid salt) for the assay of both aqueous and organic phases show a linear response over the concentration range studied. The results obtained are as follows: […]"}, "[2]": {"test": "intrinsic dissolution of tablets, Langenbucher flow-through apparatus", "format": "physicochemical", "settings": "water, 25° C.", "description": "Tablets are prepared from the salts of Examples 1 and 4 by compressing a mixture of 99 parts of the salt and 1 part of magnesium stearate in a 13mm die for 2 minutes under a pressure of 4×10^5 kPa. The intrinsic dissolution rates of the tablets are determined using a Langenbucher flow-through apparatus, with water at 25° C. as the dissolution medium. The amount of desferrioxamine-B dissolved in the medium is measured at intervals using a spectrophotometric assay at 215 nm."}, "[3]": {"test_system": "Daudi cell line (B-cell lymphoma)", "test": "iron-chelation bioassay: growth inhibiting effect on cells through iron removal, [3H] Thymidine uptake", "format": "cell-based", "settings": "72 hours, Control (0 μM): Ex 18 22297, Ex 19 23897, listed as octanesulphonate", "description": "The iron-chelating properties of salts of the invention in a biological system are determined by means of a bioassay in which the growth inhibiting effect of the salts on cells through iron removal is measured by the uptake of radioactively labelled thymidine into the cells. The bioassay is carried out using a Daudi cell line (B-cell lymphoma), a Roswell Park Memorial Institute (RPMI) 1640 medium containing 1 µM ferric citrate and supplements as low iron washing medium and RPM11640 together with 5% by weight of foetal calf serum as passaging medium.\nThe cells are fed 24 hours before use. They are washed twice in the low iron washing medium to remove any excess iron and diluted with this medium to a concentration of 0.2×10^6 cells/0.180 ml. To 0.180 ml aliquots are added 0.02 ml of solutions of the desferrioxamine-B salts under test in phosphate-buffered saline (PBS) to give concentrations ranging from a Control containing no salt to a […] solution. The cells are then incubated at 37° C. in an atmosphere containing 5% by volume of carbon dioxide for 72 hours, being pulsed for the last 8 hours of that time with labelled [^3 H] Thymidine at 5 micro Ci/ml. The resulting cells are harvested and their radioactive disintegrations are counted for 10 minutes. The results are shown in the table below as the average of 4 separate experiments (except the Control result in Example 18 which is the average of 3 separate experiments)."}, "[4]": {"format": "physicochemical", "settings": "n-octanol/phosphate buffer, pH 7.4", "description": "as §1\nThe n-octanol and aqueous phases are mutually saturated prior to conducting the experiment. The desferrioxamine-B sulphonic acid addition salt is dissolved in the aqueous phase at a concentration of 0.005 mol/l and the partition experiment is performed by shaking the vessel containing the two phases until an equilibrium has been achieved. […] After equilibrium has been achieved, the sample is centrifuged to enable phase separation. Both organic and aqueous phases are analysed for desferrioxamine-B content via extraction of an appropriate aliquot, quenching with an aqueous (for assay of the aqueous phase) or methanolic (for assay of the n-octanol phase) solution of FeCl3, and measurement of the absorption of the characteristic ferrioxamine-B chelate at ca. 450 nm. Respective calibration plots (absorbance vs. concentration of desferrioxamine-B sulphonic acid salt) for the assay of both aqueous and organic phases show a linear response over the concentration range studied. The results obtained are as follows:\nThe partition coefficients of the salts prepared in Examples 1 to 5 between n-octanol and an aqueous phosphate buffer at pH7.4 having an ionic strength of 0.31 mol/l are determined using the procedure of Examples 6-10. The results obtained are as follows:\nThe use of n-octanol/aqueous media partition coefficients as a model for the lipophilicity of drugs is well established (see the abovementioned Leo et al reference). The aqueous phase in Examples 11 to 15 simulates physiological conditions."}, "[5]": {"settings": "in words, U.S. Pat. No. 3,247,197; cited from earlier work"}},
  "note": "Structures can show the parent of a compound that is named as a salt. Where two headings read alike, the source gives them in different places.",
  "data": [
    {"smiles": "CC(=O)N(O)CCCCCNC(=O)CCC(=O)N(O)CCCCCNC(=O)CCC(=O)N(O)CCCCCN", "note": "[Example 4, octane-1-sulphonate salt of desferrioxamine-B]", "values": [
      {"measurement": "Partition Coefficient", "setting": "[1]", "result": 0.121},
      {"measurement": "% Desferrioxaine-B salt dissolved", "setting": "[2]; 1 min, listed as octanesulphonate", "result": 1.71, "unit": "%"},
      {"measurement": "% Desferrioxaine-B salt dissolved", "setting": "[2]; 2 min, listed as octanesulphonate", "result": 3.07, "unit": "%"},
      {"measurement": "% Desferrioxaine-B salt dissolved", "setting": "[2]; 5 min, listed as octanesulphonate", "result": 6.88, "unit": "%"},
      {"measurement": "% Desferrioxaine-B salt dissolved", "setting": "[2]; 10 min, listed as octanesulphonate", "result": 10.56, "unit": "%"},
      {"measurement": "% Desferrioxaine-B salt dissolved", "setting": "[2]; 15 min, listed as octanesulphonate", "result": 14.22, "unit": "%"},
      {"measurement": "% Desferrioxaine-B salt dissolved", "setting": "[2]; 20 min, listed as octanesulphonate", "result": 17.94, "unit": "%"},
      {"measurement": "% Desferrioxaine-B salt dissolved", "setting": "[2]; 30 min, listed as octanesulphonate", "result": 24.73, "unit": "%"},
      {"measurement": "% Desferrioxaine-B salt dissolved", "setting": "[2]; 50 min, listed as octanesulphonate", "result": 37.09, "unit": "%"},
      {"measurement": "% Desferrioxaine-B salt dissolved", "setting": "[2]; 75 min, listed as octanesulphonate", "result": 48.75, "unit": "%"},
      {"measurement": "% Desferrioxaine-B salt dissolved", "setting": "[2]; 100 min, listed as octanesulphonate", "result": 58.34, "unit": "%"},
      {"measurement": "% Desferrioxaine-B salt dissolved", "setting": "[2]; 125 min, listed as octanesulphonate", "result": 66.38, "unit": "%"},
      {"measurement": "% Desferrioxaine-B salt dissolved", "setting": "[2]; 150 min", "result": 72.38, "unit": "%"},
      {"measurement": "% Desferrioxaine-B salt dissolved", "setting": "[2]; 175 min, listed as octanesulphonate", "result": 79.13, "unit": "%"},
      {"measurement": "% Desferrioxaine-B salt dissolved", "setting": "[2]; 200 min, listed as octanesulphonate", "result": 84.91, "unit": "%"},
      {"measurement": "% Desferrioxaine-B salt dissolved", "setting": "[2]; 225 min, listed as octanesulphonate", "result": 89.25, "unit": "%"},
      {"measurement": "% Desferrioxaine-B salt dissolved", "setting": "[2]; 250 min, listed as octanesulphonate", "result": 92.50, "unit": "%"},
      {"measurement": "% Desferrioxaine-B salt dissolved", "setting": "[2]; 275 min, listed as octanesulphonate", "result": 94.91, "unit": "%"},
      {"measurement": "% Desferrioxaine-B salt dissolved", "setting": "[2]; 300 min, listed as octanesulphonate", "result": 96.34, "unit": "%"},
      {"measurement": "intrinsic rate of release into the aqueous dissolution medium", "setting": "[2]; in words", "result": "slow"},
      {"measurement": "Disintegrations Per Minute ([3H] Thymidine uptake)", "setting": "[3]; 0.5 μM salt", "result": "21830 Disintegrations Per Minute"},
      {"measurement": "Disintegrations Per Minute ([3H] Thymidine uptake)", "setting": "[3]; 1 μM salt", "result": "14765 Disintegrations Per Minute"},
      {"measurement": "Disintegrations Per Minute ([3H] Thymidine uptake)", "setting": "[3]; 2 μM salt", "result": "7651 Disintegrations Per Minute"},
      {"measurement": "Disintegrations Per Minute ([3H] Thymidine uptake)", "setting": "[3]; 3 μM salt", "result": "7109 Disintegrations Per Minute"},
      {"measurement": "Disintegrations Per Minute ([3H] Thymidine uptake)", "setting": "[3]; 4 μM salt", "result": "6280 Disintegrations Per Minute"},
      {"measurement": "Disintegrations Per Minute ([3H] Thymidine uptake)", "setting": "[3]; 5 μM salt", "result": "5373 Disintegrations Per Minute"},
      {"measurement": "Disintegrations Per Minute ([3H] Thymidine uptake)", "setting": "[3]; 6 μM salt", "result": "4122 Disintegrations Per Minute"},
      {"measurement": "Disintegrations Per Minute ([3H] Thymidine uptake)", "setting": "[3]; 7.5 μM salt", "result": "3716 Disintegrations Per Minute"},
      {"measurement": "Disintegrations Per Minute ([3H] Thymidine uptake)", "setting": "[3]; 10 μM salt", "result": "2292 Disintegrations Per Minute"},
      {"measurement": "Disintegrations Per Minute ([3H] Thymidine uptake)", "setting": "[3]; 15 μM salt", "result": "1065 Disintegrations Per Minute"},
      {"measurement": "Disintegrations Per Minute ([3H] Thymidine uptake)", "setting": "[3]; 20 μM salt", "result": "482 Disintegrations Per Minute"},
      {"measurement": "Partition Coefficient", "setting": "[4]", "result": 0.047}
    ]},
    {"smiles": "CC(=O)N(O)CCCCCNC(=O)CCC(=O)N(O)CCCCCNC(=O)CCC(=O)N(O)CCCCCN", "note": "[desferrioxamine-B]", "values": [
      {"measurement": "ability to form stable complexes with trivalent metal ions", "setting": "[5]", "result": "marked ability to form stable complexes with trivalent metal ions, especially Fe^3+"}
    ]}
  ]
}
